Tests used:
[1] = refractive index (Na D-line) (dimensionless); conditions: 313 K; 101.33 kPa; Liquid; Standard Abbe refractometry
[2] = Molar enthalpy of transition or fusion; conditions: Crystal; DSC
[3] = for mass density / viscosity: 101.33 kPa; for mass density / surface tension liquid-gas / viscosity: Liquid; for mass density: Vibrating tube method; for surface tension liquid-gas: Ring tensiometer

CCCCCC[N+]12CCN(CC1)CC2.O=S(=O)([N-]S(=O)(=O)C(F)(F)F)C(F)(F)F
Conditions	Molar enthalpy of transition or fusion [kcal/mol]	refractive index
[1]	–	1.4379
[2]	2.63	–

[3]
Conditions	mass density [kg/m3]	surface tension liquid-gas [mN/m]	viscosity [mPa·s]
313.15 K	1355.15	35.62	–
318.15 K	1350.93	35.33	190.8
323.15 K	1346.72	35.05	138.1
328.15 K	1342.51	34.83	107
333.15 K	1338.29	34.51	87.6

[3], DTA
Conditions	Glass transition temperature [°C]	Normal melting temperature [°C]
Crystal	–	36
Glass	-51	–
